Experimental data taken from patent US9598463B2, “Mucin hypersecretion inhibitors and methods of use” (BIOMARCK PHARMACEUTICALS, LTD., priority 2005, dated 2017).

Experiments:
[1] = Stability of test peptides in human plasma (LC/MS/MS, first order half-life); type: in vitro ADME; details: human plasma, 37° C.
Description: (§1) Various test peptides in human plasma, human BALF, and CF patient mucus were analyzed to determine the susceptability of the test peptide to proteolysis in the biological fluids. […] The samples were analyzed either on the same day as received or stored at −20° C. and analyzed within the following two days.
Fresh human blood samples were collected in citrate buffered vacuutrainers (in absence of EDTA or heparin). Red blood cells (RBC) were removed by centrifugation of the blood at 4000×g for 10 min at 4° C. Plasma aliquots (0.9 mL) were then spiked with 0.1 mL of 0.5 mg/mL solution of the test peptide in 75 mM sodium acetate buffer at pH 7.0 and incubated in a water bath maintained at 37° C. Duplicate aliquots of 10 μL, were withdrawn at 5, 15, 30, 60, and 180 minutes intervals and immediately “quenched” with 990 μL of a solution consisting of 50% acetonitrile+50% water containing 0.2% formic acid. The samples were then subjected to liquid chromatography-mass spectrometry (LCMS) analysis.
(§2) All samples were analyzed using LC/MS/MS (MDS/SCIEX, API 4000 Model). Chromatography was performed using a Phenomenex Luna C18 column, while mass spectrometry was performed using positive ion electrospray ionization.
Calibration standards were analyzed by LCMS at concentrations of 0.100 μg/mL, 1.00 μg/mL, 10.0 μg/mL, and 100 μg/mL for each peptide, with the exception of the calibration standards for peptides myr-PEPTIDE 106, PEPTIDE 106, PEPTIDE 106-NH2, PEPTIDE 106, and cyclic peptide, cyc-PEPTIDE 106, in human mucus, which were analyzed at concentrations of 0.100 μg/mL, 1.00 μg/mL, 10.0 μg/mL, and 75 μg/mL. Standards were prepared in 1% human BALF, plasma, or mucus in 50/50 water/acetonitrile mixture containing 0.2% formic acid. The instrument response values for each set of standards were fit using a 1/(concentration)^2 linear least-squares line. Sample concentrations were calculated using the slope and intercept of this line. Concentrations outside of the calibration range were determined by extrapolating the calibration curve. […]
For the analysis of peptide concentration in plasma, duplicate calibration standards were analyzed at a concentration of 25 μg/mL and 50 μg/mL for each peptide. The instrument response values for each set of standards were fit through an intercept of 0 using an unweighted, linear least-squares line. Sample concentrations were calculated using the slope and intercept of this line. Concentrations outside of the calibration range were determined by extrapolating the calibration curve.
(§3) Watson fits the log transformed data with a least-squares line to determine parameters such as Cmax (maximum concentration), intercept, rate constant, slope, and T1/2 (half-life). The resulting kinetic parameters were based on the linear fit, not the actual concentration values.
(§4) Time-zero calibration standards in solution were not included as part of the kinetic profiles.

[2] = Stability of test peptides in human CF mucus (LC/MS/MS, first order half-life); type: in vitro ADME; details: cerebrospinal or other body fluid, pH 7, human CF mucus
Description: as §1
The frozen mucus (sputum) from a CF patient was thawed and mixed with 2 volumes of 75 mM sodium acetate buffer, pH 7 with the help of a glass tissue grinder, centrifuged at 10,000×g for 10 min at 4-8° C. The pellet was re-suspended in 1 volume of the acetate buffer and centrifuged. The two supernatants were combined and used as follows. The supernatant (450 μL) was spiked with 50 μL, of 0.5 mg/mL solution of the peptide in 75 mM sodium acetate buffer at pH 7.0 and processed and analyzed as described above.
as §2
Calibration standards were analyzed by LCMS at concentrations of 0.100 μg/mL, 1.00 μg/mL, 10.0 μg/mL, and 100 μg/mL for each peptide, with the exception of the calibration standards for peptides myr-PEPTIDE 106, PEPTIDE 106, PEPTIDE 106-NH2, PEPTIDE 106, and cyclic peptide, cyc-PEPTIDE 106, in human mucus, which were analyzed at concentrations of 0.100 μg/mL, 1.00 μg/mL, 10.0 μg/mL, and 75 μg/mL. Standards were prepared in 1% human BALF, plasma, or mucus in 50/50 water/acetonitrile mixture containing 0.2% formic acid. The instrument response values for each set of standards were fit using a 1/(concentration)^2 linear least-squares line. Sample concentrations were calculated using the slope and intercept of this line. Concentrations outside of the calibration range were determined by extrapolating the calibration curve.
as §3, §4

HBE1 cells = assay: PMA-induced mucin hypersecretion in human bronchial epithelial cells (air/liquid interface, MUC5A ELISA); type: cell-based; details: pretreatment with 25 μM peptide, then 0.5 μM PMA
Description: HBE1 is a papilloma virus-transformed human bronchial epithelial cell line capable of mucin secretion when cultured in air/liquid interface. HBE1 cells were cultured in the air/liquid interface as described previously (Li et al, J. Biol. Chem., volume 276, pp 40982-40990, 2001). Briefly, HBE1 cells were cultured in air/liquid interface by seeding an appropriate number of cells in 12-well Transwell clear culture inserts (Costar, Cambridge, Mass.) that were thinly coated with rat tail collagen, type I (Collaborative Biomedical, Bedford, Mass.). Cells were initially cultured submerged in medium in a humidified 95% air, 5% CO2 environment for 5-7 days until nearly confluent. At that time, the air/liquid interface was created by removing the apical medium and feeding cells basalaterally. Medium was renewed daily thereafter. Cells were cultured for an additional 14 days to allow full differentiation. The accumulated mucin at the apical surface of the cells was removed by washing with phosphate-buffered saline, pH 7.2. To collect the baseline mucin secretion, cells were incubated for 30 min with medium alone and secreted mucin in the apical medium was collected, and quantitated by ELISA. To determine the mucin hypersecretion induced by a mucin secretagogue, cells were exposed to medium containing 0.5 μM phorbol myristate acetate, (PMA) for 30 min. and mucin was collected and quantitated by ELISA. […] Six wells were used for each test peptides and for each control. Secreted mucin in the apical medium was collected and quantitated by sandwich ELISA method using alkaline phosphatase-conjugated mucin (MUC5A) specific antibody (Zymed Laboratories, San Francisco, Calif.).

[3] = 2nd experiment, read-out: Plasma t1/2 (2nd exp.) (converted)
[4] = 1st experiment, read-out: Mucus t1/2 (1st exp.) (converted)
[5] = 2nd experiment, read-out: Mucus t1/2 (2nd exp.) (converted)

Substance	half-life [1, 3] [min]	half-life [2, 4] [min]	half-life [2, 5] [min]	Block of PMA-induced increase in mucin secretion (HBE1 cells) [%]	half-life ([1]; 1st experiment, read-out: Plasma t1/2 (1st exp.) (converted)) [min]
Ac-GAQFSKTAAK-OH [Ac-peptide 106]	1.8	33	28.2	100	–
H-GAQFSKTAAK-OH [peptide 106, GAQFSKTAAK]	9	13.8	22.2	–	16.8
